Tests used:
Conditions in all cases: main component drawn
[1] = tested on: S. aureus DSM 20231; test: Bliss interaction score (quartile over a dose matrix) (fitness difference); higher = more antagonism (negative = synergy)
Method in brief: (§1)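 Each OD595 reading at entry into stationary phase was scaled to the robust mean of the untreated wells on its plate, with a ceiling of 1. These ratios define fitness, and single-drug fitness was inferred from combinations. The Bliss score compares observed fitness with the product-based expectation and is reported as quartiles across all replicate types, technical, biological and donor/recipient.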

[2] = tested on: S. pneumoniae D39V; test: as above
Method in brief: as §1

[3] = tested on: B. subtilis 168; test: as above
Method in brief: as §1

[4] = tested on: S. aureus Newman; test: as above
Method in brief: as §1

[5] = tested on: S. pneumoniae D39V; test: fitness (endpoint OD595 vs no drug) (fraction); higher = more growth
Method in brief: (§2)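 Plates with 384 wells were inoculated at OD595 0.01 using 30 µl of TSB, LB Lennox or CY, or 55 µl for S. pneumoniae. Incubation was at 37 °C, with OD595 measured every 30 min for 14 h. Fitness is the stationary-phase transition optical density over the robust mean of no-drug control wells, after first-reading background subtraction; it is capped at 1.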

[6] = tested on: B. subtilis 168; test: as above
Method in brief: as §2

[7] = tested on: S. aureus Newman; test: as above
Method in brief: as §2
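Wherever Bliss interaction score (quartile over a dose matrix) is given: first quartile when negative (synergy) and third quartile when positive (antagonism).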

CNC(C)C1CCC(N)C(OC2C(N)CC(N)C(OC3OCC(C)(O)C(NC)C3O)C2O)O1 (stereo unspecified) [Gentamicin] + CN1C2=CC=CC=C2N=C3C1=CC=CC3=O [Pyocyanin]
Conditions | Bliss interaction score
[1] | 0.0622
[2] | -0.113
[3] | 0.129
[4] | 0.111

Conditions | fitness
[5], first compound 2 µg/mL, partner 0.325 µg/mL | 0.962
[5], first compound 2 µg/mL, partner 0.65 µg/mL | 0.964
[5], first compound 2 µg/mL, partner 1.3 µg/mL | 0.6
[5], first compound 4 µg/mL, partner 0.325 µg/mL | ≥ 1
[5], first compound 4 µg/mL, partner 0.65 µg/mL | 0.959
[5], first compound 4 µg/mL, partner 1.3 µg/mL | 0.599
[5], first compound 8 µg/mL, partner 0.325 µg/mL | 0.94
[5], first compound 8 µg/mL, partner 0.65 µg/mL | 0.865
[5], first compound 8 µg/mL, partner 1.3 µg/mL | 0.531
[6], first compound 0.0625 µg/mL, partner 1.25 µg/mL | 0.893
[6], first compound 0.0625 µg/mL, partner 2.5 µg/mL | 0.802
[6], first compound 0.0625 µg/mL, partner 5 µg/mL | 0.758
[6], first compound 0.125 µg/mL, partner 5 µg/mL | 0.559
[6], first compound 0.25 µg/mL, partner 1.25 µg/mL | 0.0424
[6], first compound 0.25 µg/mL, partner 2.5 µg/mL | 0.038
[6], first compound 0.25 µg/mL, partner 5 µg/mL | 0.0455
[7], first compound 0.5 µg/mL, partner 1.25 µg/mL | 0.908
[7], first compound 0.5 µg/mL, partner 2.5 µg/mL | 0.873
[7], first compound 1 µg/mL, partner 1.25 µg/mL | 0.942
[7], first compound 1 µg/mL, partner 2.5 µg/mL | 0.909
[7], first compound 1 µg/mL, partner 5 µg/mL | 0.645
[7], first compound 2 µg/mL, partner 1.25 µg/mL | 0.917
[7], first compound 2 µg/mL, partner 2.5 µg/mL | 0.903
[7], first compound 2 µg/mL, partner 5 µg/mL | 0.545

fitness, [7], one replicate
Conditions | first compound 0.375 µg/mL | first compound 0.75 µg/mL | first compound 1.5 µg/mL
partner 1.25 µg/mL | 0.76 | 0.775 | 0.774
partner 2.5 µg/mL | 0.791 | 0.776 | 0.783
partner 5 µg/mL | 0.439 | 0.463 | 0.421

CNC(C)C1CCC(N)C(OC2C(N)CC(N)C(OC3OCC(C)(O)C(NC)C3O)C2O)O1 (stereo unspecified) [Gentamicin] + CN(C)c1cc(NC(=O)CNC(C)(C)C)c(O)c2c1C[C@H]1C[C@H]3[C@H](N(C)C)C(O)=C(C(N)=O)C(=O)[C@@]3(O)C(O)=C1C2=O [Tigecycline]
Conditions | Bliss interaction score
[1] | -0.0407
[2] | 0.0631
[3] | 0.122
[4] | -0.0289

Conditions | fitness
[5], first compound 2 µg/mL, partner 0.325 µg/mL | 0.94
[5], first compound 2 µg/mL, partner 0.65 µg/mL | 0.9
[5], first compound 2 µg/mL, partner 1.3 µg/mL | 0.909
[5], first compound 2 µg/mL, partner 2.6 µg/mL | 0.897
[5], first compound 4 µg/mL, partner 0.325 µg/mL | 0.943
[5], first compound 4 µg/mL, partner 0.65 µg/mL | 0.945
[5], first compound 4 µg/mL, partner 1.3 µg/mL | 0.96
[5], first compound 4 µg/mL, partner 2.6 µg/mL | 0.903
[5], first compound 8 µg/mL, partner 0.325 µg/mL | 0.971
[5], first compound 8 µg/mL, partner 0.65 µg/mL | 0.911
[5], first compound 8 µg/mL, partner 1.3 µg/mL | 0.977
[5], first compound 8 µg/mL, partner 2.6 µg/mL | 0.858
[6], first compound 0.0625 µg/mL, partner 0.039 µg/mL | 0.967
[6], first compound 0.0625 µg/mL, partner 0.078 µg/mL | 0.908
[6], first compound 0.0625 µg/mL, partner 0.156 µg/mL | 0.907
[6], first compound 0.25 µg/mL, partner 0.039 µg/mL | 0.186
[6], first compound 0.25 µg/mL, partner 0.078 µg/mL | 0.0549
[6], first compound 0.25 µg/mL, partner 0.156 µg/mL | 0.0589
[7], first compound 0.5 µg/mL, partner 0.039 µg/mL | 0.974
[7], first compound 0.5 µg/mL, partner 0.078 µg/mL | 0.949
[7], first compound 0.5 µg/mL, partner 0.156 µg/mL | 0.935
[7], first compound 1 µg/mL, partner 0.039 µg/mL | 0.988
[7], first compound 1 µg/mL, partner 0.078 µg/mL | ≥ 1
[7], first compound 1 µg/mL, partner 0.156 µg/mL | ≥ 1
[7], first compound 2 µg/mL, partner 0.039 µg/mL | ≥ 1
[7], first compound 2 µg/mL, partner 0.078 µg/mL | ≥ 1
[7], first compound 2 µg/mL, partner 0.156 µg/mL | ≥ 1

fitness, one replicate
Conditions | first compound 0.0625 µg/mL | first compound 0.125 µg/mL | first compound 0.25 µg/mL | first compound 0.375 µg/mL | first compound 0.75 µg/mL | first compound 1.5 µg/mL
[6], partner 0.125 µg/mL | ≥ 1 | ≥ 1 | 0.0664 | – | – | –
[6], partner 0.25 µg/mL | 0.91 | 0.891 | 0.315 | – | – | –
[6], partner 0.5 µg/mL | 0.965 | 0.879 | 0.21 | – | – | –
[7], partner 0.039 µg/mL | – | – | – | 0.935 | 0.933 | 0.953
[7], partner 0.078 µg/mL | – | – | – | 0.97 | ≥ 1 | 0.966
[7], partner 0.156 µg/mL | – | – | – | ≥ 1 | 0.969 | 0.964

— the supplement of paper PMC10627819
